Legend:
[1] = system: enzyme for ganglioside GM3 synthesis, mouse B16 melanoma cell; test: Activity of enzyme for ganglioside GM3 synthesis (14C-Gal incorporated in total lipid fraction); type: cell-based; conditions: relative value, control regarded as 100; test compound 24 μM, 24 hours; 14C-Gal incorporation
Procedure: The gangliosides produced by mouse B16 melanoma cell are almost composed of ganglioside GM3. Therefore, the activity of the enzyme for ganglioside GM3 synthesis can be determined conveniently by measuring the amount of ^14C-Gal incorporated in a total lipid-extracted fraction through a liquid layer partition method.
A liquid where the cells of mouse B16 melanoma were suspended was prepared with Dulbecco modified Eagle's medium containing 10% bovine fetal serum, inoculated into a 12-well plate in an amount of 2.0×10^5 cells/ml/well, and cultured in 5% CO2 incubator at 37° C. The treatment with a test compound (24 μM) and the addition of ^14C-Gal (22.2 kBq/11.7 nmol/6 μl/well) were started through the exchange of total amount of the medium 24 hours after the culture was started. Twenty-four hours after the treatment with the test compound was started, the culture mixture was treated with PBS containing 0.02% EDTA and PBS containing 0.25% trypsin successively to recover the cells.
Then, a mixed solvent of chloroform:methanol=2:1 (3 ml) was added to the cell pellet and, after the subjection to an ultrasonication for 30 minutes, the supernatant was recovered. Furthermore, a mixed solvent of chloroform:methanol=1:1 (3 ml) was added to the residual pellet after the recovery of the supernatant, and a similar operation was carried out. The resulting supernatant was combined with the first supernatant and the whole was evaporated to dryness under a nitrogen stream. A desalinated water (1.0 ml) was added to the total lipid-extracted fraction. After having been subjected to an ultrasonication for 1 minute, the mixture was transferred into a dialysis tube and dialyzed against water for 2 days. The sample after the dialysis was transferred into a vial for liquid scintillation counter and, after the addition of scintillator, the activity of incorporating ^14C-Gal was measured on scintillation counter.
The values of activity of the compounds of the present invention are shown as relative values obtained by calculation on the basis that the value of a control (a group where no test compound was added) is regarded as 100 in Table 3 below.

[2] = Tissue distribution: concentration in plasma and skeletal muscle after oral or intravenous administration; type: in vivo; conditions: male, Wistar, plasma, rat
Procedure: Tissue distribution of the compound in Example 19 was compared with that of L-PDMP using 6-8 week old Wistar male rats.
As oral administration, a physiological saline containing 20 mg/ml of a test substance was administered at 100 mg/5 ml/kg, and as intravenous administration, a physiological saline containing 1.25 mg/ml of a test substance was administered to the cervical vein at 5 mg/4 ml/kg.
After the predetermined time had passed since the above administration, blood was collected from the rat cervical vein, a 3.8% sodium citrate solution was added thereto at 1/10 volume, followed by centrifugation at 3,000 rpm for 15 minutes to obtain the supernatant as a plasma sample.
Also, after the predetermined time had passed since the above administration, the skeletal muscle was collected from the femoral region of both hind legs, ice water was added thereto at 4 ml/g tissue, followed by homogenization, and the same volume of acetonitrile was added thereto, followed by vigorously stirring and centrifugation at 4000 rpm for 10 minutes to obtain the supernatant as a skeletal muscle sample.
The plasma and skeletal muscle samples were extracted by OASIS HLB solid phase extraction column (manufactured by Waters), and the concentration of the test compound in the plasma and the muscle was determined by high performance liquid chromatography (HPLC). The conditions of HPLC analysis were as follows:
Detection wavelength: 218 nm
Column: DAISO PACK SP-120-5-ODS-BP
Column temperature: 40° C.
Mobile phase: 0.1% trifluoroacetic acid solution:methanol=36:64 (for L-PDMP); 0.1% trifluoroacetic acid solution:methanol=48:52 (for the compound in Example 19)
The concentrations in the plasma and skeletal muscle of the compound in Example 19 and L-PDMP after the predetermined time has been passed since the administration of the test compounds are shown in Tables 4-6 below. The values are the mean values of at least two test samples. Specifically, Table 4, Table 5, and Table 6 show the concentrations in the plasma after the oral administration of 100 mg/kg, the concentrations in the skeletal muscle after the oral administration of 100 mg/kg, and the concentrations in the plasma after the intravenous administration of 5 mg/kg, respectively.

[3] = system: neurite; conditions: literature; cited from earlier work
[4] = system: synapse formation; conditions: WO 95/05177; cited from earlier work
[5] = system: MAPkinase (mitogen-activated protein kinase); conditions: Biochem. Biophys. Res. Commun. 237: 595-600 (1997); cited from earlier work
[6] = system: enzyme for GQ1b synthesis; conditions: Biochem. Biophys. Res. Commun. 237: 595-600 (1997); cited from earlier work

CCCCCCCCCC(=O)N[C@@H](CN1CCOCC1)[C@@H](O)c1ccccc1 [L-PDMP, (1S,2S)-1-phenyl-2-decanoylamino-3-morpholino-1-propanol, reference compound]
Activity of accelerating glycolipid biosynthesis (Test Example 2) [1]: 95.2
concentration at 10 min ([2]; intravenous administration of 5 mg/kg, 10 min): 1030 ng/mL
concentration at 25 min ([2]; intravenous administration of 5 mg/kg, 25 min): 620 ng/mL
concentration at 5 min ([2]; oral administration of 100 mg/kg, 5 min): 10 ng/mL
concentration at 15 min ([2]; oral administration of 100 mg/kg, 15 min): 1360 ng/mL
concentration at 30 min ([2]; oral administration of 100 mg/kg, 30 min): 2100 ng/mL
concentration at 60 min ([2]; oral administration of 100 mg/kg, 60 min): 1440 ng/mL
effect on neurite extension [3]: effect of accelerating neurite extension
effect on synapse formation [4]: effect of accelerating synapse formation
effect on MAPkinase [5]: activates MAPkinase for a long period of time
effect on activity of enzyme for GQ1b synthesis [6]: increases the activity of an enzyme for GQ1b synthesis

Reference: US6407064B2, “Aminoalcohol derivative and medicament comprising the same” (Seikagaku Corporation, priority 1999, dated 2002)
